This passage reports inhibition and ABI1 inhibition results from patent publication US10322995B2, “Substituted cyano cycloalkyl penta-2,4-dienes, cyano cycloalkyl pent-2-en-4-ynes, cyano heterocyclyl penta-2,4-dienes and cyano heterocyclyl pent-2-en-4-ynes as active substances against abiotic plant stress” (BAYER CROPSCIENCE AKTIENGESELLSCHAFT, priority 2014, dated 2019).

For orientation: inhibition means the percentage by which the read-out fell short of the control.

The first assay concerns the target T1, phosphatase ABI1 via the co-regulator RCAR11/PYR1 (Arabidopsis thaliana, UniProt O49686+P49597).
T1 sequence (O49686 1-191): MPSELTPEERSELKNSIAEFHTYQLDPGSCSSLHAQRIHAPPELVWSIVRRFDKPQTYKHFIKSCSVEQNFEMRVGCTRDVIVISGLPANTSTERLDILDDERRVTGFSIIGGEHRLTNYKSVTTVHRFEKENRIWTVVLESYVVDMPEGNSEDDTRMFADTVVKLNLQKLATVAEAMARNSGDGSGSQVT
T1 sequence (P49597 1-434): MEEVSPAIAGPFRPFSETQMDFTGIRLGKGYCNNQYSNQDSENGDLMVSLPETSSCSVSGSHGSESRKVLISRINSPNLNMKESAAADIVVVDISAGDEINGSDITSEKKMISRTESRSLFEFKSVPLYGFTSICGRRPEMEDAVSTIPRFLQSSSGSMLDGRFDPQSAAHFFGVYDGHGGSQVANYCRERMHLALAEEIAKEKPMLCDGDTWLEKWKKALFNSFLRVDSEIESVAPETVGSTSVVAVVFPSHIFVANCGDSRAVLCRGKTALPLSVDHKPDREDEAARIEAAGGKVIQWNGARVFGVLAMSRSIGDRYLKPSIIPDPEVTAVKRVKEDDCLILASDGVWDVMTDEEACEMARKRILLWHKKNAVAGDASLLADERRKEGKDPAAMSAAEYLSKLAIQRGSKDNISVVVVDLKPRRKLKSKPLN
In words: In vitro assay: inhibition of the phosphatase ABI1 via the co-regulator RCAR11/PYR1, MUP dephosphorylation, fluorescence. Format: biochemical. Also on record: inhibition: dose or concentration left out as unconfirmed. As to conditions: MUP dephosphorylation, fluorescence 460 nm; read-out: ABI1 inhibition. The procedure, abridged:
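ABI1 (0.15 μg/well) with RCAR11 (0.30 μg/well) in Tris-HCl pH 8, NaCl, MnCl2, DTT and Tween20, with MUP as substrate; 20 min at 35 °C, fluorescence at ex 340/em 460 nm. Compounds were in DMSO/water, esterase-pretreated if needed, with DMSO 0.5% and ABA 5 μM as controls. Inhibition was binned into ≥90, 70–90, 50–70 and 30–50% classes.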
As to `CCOC(=O)/C=C(\C#CC(O)(C(C)C)C1(C#N)CC1)C1CC1` (stereo not drawn) [I.1-124, Ethyl (2Z)-6-(1-cyanocyclopropyl)-3-cyclopropyl-6-hydroxy-7-methyloct-2-en-4-ynoate], the inhibition was above 90%.

The assay is the same for the next values; noted with them: concentration of 5 mM of the substance in a solution of DMSO and water; MUP dephosphorylation, fluorescence 460 nm.
As to `CCC(C=CC(O)(c1ccccc1)C1(C#N)CC1)=CC(=O)O` (racemic) [I.2-201], the ABI1 inhibition result was “++++ (inhibition≥90%)”.

As to `CCOC(=O)/C=C(\C#CC(O)(C(C)C)C1(C#N)CC1)CC` (stereo not drawn) [I.1-103], the ABI1 inhibition result is recorded as “++++ (inhibition≥90%)”.

Take `COC(=O)/C=C(/C)C#CC(O)(C(C)C)C1(C#N)CC1` (stereo not drawn) [I.1-135]: the ABI1 inhibition result is “++++ (inhibition≥90%)”.

With `CCOC(=O)/C=C(/C)C#CC(O)(C(C)C)C1(C#N)CC1` (stereo not drawn) [I.1-136], the ABI1 inhibition entry is given as “+++ (90%>inhibition≥70%)”.

Take `CC/C(C#CC(O)(c1ccccc1)C1(C#N)CC1)=C/C(=O)OC` (stereo not drawn) [I.1-202]: the ABI1 inhibition entry is given as “++++ (inhibition≥90%)”.

Consider `CCCOC(=O)/C=C(\C#CC(O)(C(C)C)C1(C#N)CC1)CC` (stereo not drawn) [I.1-605], for which the ABI1 inhibition result was “++++ (inhibition≥90%)”.

For the compound `CCCOC(=O)/C=C(\C#CC(O)(c1ccccc1)C1(C#N)CC1)CC` (stereo not drawn) [I.1-609], the ABI1 inhibition result is recorded as “++++ (inhibition≥90%)”.

For the compound `CC/C(C#CC(O)(C1CCC1)C1(C#N)CC1)=C/C(=O)OC` (stereo not drawn) [I.1-648], the ABI1 inhibition result is recorded as “++++ (inhibition≥90%)”.
